Experimental data as given in ChEMBL document CHEMBL1201862, “PubChem BioAssay data set” (2004).
Calls of active or inactive are those of the source.

Experiments:
INS1 = assay: INS-1E survival protection against cytokine death – cell-based, luminescence, retest, dose response (AID 449756); format: functional; settings: Rattus norvegicus;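 further: cell death triggered by IL-1 beta plus TNF-alpha plus IFN-gamma mixture; protective hits raise ATP signal compared with cytokine alone wells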
Vero = assay: mammalian cell viability reduction – secondary assay, cytotoxicity control for West Nile virus antiviral project, dose response (AID 1650); format: functional; settings: Chlorocebus sabaeus
[1] = molecular target: Luciferin 4-monooxygenase (Photinus pyralis, UniProt P08659); assay: inhibition of purified Photinus pyralis luciferase – biochemical, luminescence, dose response (AID 1891)
Sequence of Luciferin 4-monooxygenase (P08659 whole entry): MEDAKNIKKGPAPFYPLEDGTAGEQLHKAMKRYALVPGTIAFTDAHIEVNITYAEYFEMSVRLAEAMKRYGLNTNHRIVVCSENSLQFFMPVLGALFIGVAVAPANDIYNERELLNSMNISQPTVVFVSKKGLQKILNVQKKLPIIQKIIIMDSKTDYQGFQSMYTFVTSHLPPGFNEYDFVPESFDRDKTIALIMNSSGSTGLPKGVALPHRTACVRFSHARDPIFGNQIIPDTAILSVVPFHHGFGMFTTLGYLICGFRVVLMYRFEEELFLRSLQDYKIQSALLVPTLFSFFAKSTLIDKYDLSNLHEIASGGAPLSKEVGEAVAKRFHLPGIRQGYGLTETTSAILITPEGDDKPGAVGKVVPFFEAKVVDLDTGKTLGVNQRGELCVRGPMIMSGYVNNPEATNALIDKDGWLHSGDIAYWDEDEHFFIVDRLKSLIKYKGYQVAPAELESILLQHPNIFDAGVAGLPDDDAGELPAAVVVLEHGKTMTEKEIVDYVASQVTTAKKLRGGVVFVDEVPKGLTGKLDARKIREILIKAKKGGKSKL

[2] = Fluorescence Cell-Based Dose Response to Identify Inhibitors of Thrombin Receptor-Activating Peptide SFLLRN-Mediated P-Selectin Induction on Platelets. [Related pubchem assays: 1663 (Primary HTS), 1889 (retest at dose ), 1891 (counterscreen), 1678 (Project Summary)]; format: functional
[3] = Luminescence Cell-Based Dose Confirmation HTS to Identify Inhibitors of Platelet Dense Granule Release. [Related pubchem assays: 1663 (Primary HTS), 1678 (Summary of Project)]; format: functional
[4] = Trypanosoma cruzi growth suppression in host cells – NIH3T3 host cells, beta-gal luminescence, confirmation (AID 2044); format: functional, cell-based;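 further: intracellular parasites grown in NIH/3T3 mouse fibroblasts as host cells; luminescent beta-galactosidase reporter signal from transgenic T. cruzi replicating inside host cells; inhibitors lower the luminescence signal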
[5] = inhibition of ADAM10 peptide cleavage – biochemical, FRET peptide substrate, recombinant human ADAM10, selectivity assay for ADAM17 exosite inhibitor project, dose response (AID 743259);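 further: ADAM10 enzyme cleaving a FRET peptide substrate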
[6] = NIH3T3 cell viability loss – ATP luminescence, mouse fibroblasts, counter-screen, dose response (AID 2010); format: functional, cell-based;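 further: cells exposed to compound for about 90 hours before reading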
[7] = molecular target: T1, Disintegrin and metalloproteinase domain-containing protein 17 (Homo sapiens, UniProt P78536); assay: exosite inhibitors of ADAM17, dose response, biochemical (AID 743260)
T1 sequence (P78536 whole entry, the tested form may be a part): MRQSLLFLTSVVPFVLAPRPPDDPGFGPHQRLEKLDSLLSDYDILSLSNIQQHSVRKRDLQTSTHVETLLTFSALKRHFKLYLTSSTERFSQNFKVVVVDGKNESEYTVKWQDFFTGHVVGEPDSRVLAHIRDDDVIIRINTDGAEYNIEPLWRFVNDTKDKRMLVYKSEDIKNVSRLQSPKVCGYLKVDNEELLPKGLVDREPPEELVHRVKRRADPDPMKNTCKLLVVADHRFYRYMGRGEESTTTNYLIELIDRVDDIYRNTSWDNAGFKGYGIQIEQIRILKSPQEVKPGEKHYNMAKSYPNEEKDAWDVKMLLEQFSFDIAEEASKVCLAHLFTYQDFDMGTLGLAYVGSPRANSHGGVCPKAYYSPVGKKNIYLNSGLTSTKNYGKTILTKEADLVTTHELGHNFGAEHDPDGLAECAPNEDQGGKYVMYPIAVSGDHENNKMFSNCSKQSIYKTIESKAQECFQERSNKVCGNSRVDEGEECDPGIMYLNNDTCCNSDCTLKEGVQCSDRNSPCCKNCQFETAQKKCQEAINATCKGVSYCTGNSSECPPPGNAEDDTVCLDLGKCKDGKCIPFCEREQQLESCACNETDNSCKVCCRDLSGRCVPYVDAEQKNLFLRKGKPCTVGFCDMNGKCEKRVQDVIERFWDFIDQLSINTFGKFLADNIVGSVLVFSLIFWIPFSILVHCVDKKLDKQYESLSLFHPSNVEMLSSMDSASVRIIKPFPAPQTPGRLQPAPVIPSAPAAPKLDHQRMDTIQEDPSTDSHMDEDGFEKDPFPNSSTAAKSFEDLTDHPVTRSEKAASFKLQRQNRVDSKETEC

[8] = molecular target: E3 ubiquitin-protein ligase Mdm2 (Homo sapiens, UniProt Q00987); assay: MDM2-luc reporter signal enhancers, multi-concentration potency testing, MDM2 ubiquitin-protein ligase inhibitor program, whole-cell format, luminescence detection, 384-well microplate (AID 1394); format: functional;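 further: MDM2 E3 inhibitors raise luminescence so EC50 is for signal enhancement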
Sequence of E3 ubiquitin-protein ligase Mdm2 (Q00987 whole entry): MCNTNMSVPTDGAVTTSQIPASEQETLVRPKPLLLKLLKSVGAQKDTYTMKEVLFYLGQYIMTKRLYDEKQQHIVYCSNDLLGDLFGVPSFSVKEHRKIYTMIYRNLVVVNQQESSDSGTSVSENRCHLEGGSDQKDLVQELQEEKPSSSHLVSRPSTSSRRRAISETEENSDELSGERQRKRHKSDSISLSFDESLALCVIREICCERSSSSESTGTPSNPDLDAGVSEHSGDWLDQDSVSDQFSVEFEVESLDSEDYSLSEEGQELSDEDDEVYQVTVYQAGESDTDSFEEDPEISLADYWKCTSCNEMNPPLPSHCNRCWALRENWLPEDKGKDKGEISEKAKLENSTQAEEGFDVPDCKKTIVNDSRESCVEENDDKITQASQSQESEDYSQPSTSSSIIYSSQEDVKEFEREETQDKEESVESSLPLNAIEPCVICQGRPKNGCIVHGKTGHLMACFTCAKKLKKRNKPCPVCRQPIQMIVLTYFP

BJ = assay: growth inhibition of engineered Ras-driven BJ cells – cell-based, alamar blue fluorescence, cherrypicked samples, dose response (AID 2631); format: functional; settings: Homo sapiens;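 further: confirmatory dose-response assay in RAS-dependent BJ fibroblasts engineered with TERT, LT and ST, with cytotoxicity read by fluorescence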
Ephrin type-A receptor 4 = Ephrin type-A receptor 4 (Mus musculus, UniProt Q03137); assay: EphA4 ligand-binding antagonists – biochemical, colorimetric, mouse EphA4, primary screen (AID 689); format: functional
Sequence of Ephrin type-A receptor 4 (Q03137 whole entry): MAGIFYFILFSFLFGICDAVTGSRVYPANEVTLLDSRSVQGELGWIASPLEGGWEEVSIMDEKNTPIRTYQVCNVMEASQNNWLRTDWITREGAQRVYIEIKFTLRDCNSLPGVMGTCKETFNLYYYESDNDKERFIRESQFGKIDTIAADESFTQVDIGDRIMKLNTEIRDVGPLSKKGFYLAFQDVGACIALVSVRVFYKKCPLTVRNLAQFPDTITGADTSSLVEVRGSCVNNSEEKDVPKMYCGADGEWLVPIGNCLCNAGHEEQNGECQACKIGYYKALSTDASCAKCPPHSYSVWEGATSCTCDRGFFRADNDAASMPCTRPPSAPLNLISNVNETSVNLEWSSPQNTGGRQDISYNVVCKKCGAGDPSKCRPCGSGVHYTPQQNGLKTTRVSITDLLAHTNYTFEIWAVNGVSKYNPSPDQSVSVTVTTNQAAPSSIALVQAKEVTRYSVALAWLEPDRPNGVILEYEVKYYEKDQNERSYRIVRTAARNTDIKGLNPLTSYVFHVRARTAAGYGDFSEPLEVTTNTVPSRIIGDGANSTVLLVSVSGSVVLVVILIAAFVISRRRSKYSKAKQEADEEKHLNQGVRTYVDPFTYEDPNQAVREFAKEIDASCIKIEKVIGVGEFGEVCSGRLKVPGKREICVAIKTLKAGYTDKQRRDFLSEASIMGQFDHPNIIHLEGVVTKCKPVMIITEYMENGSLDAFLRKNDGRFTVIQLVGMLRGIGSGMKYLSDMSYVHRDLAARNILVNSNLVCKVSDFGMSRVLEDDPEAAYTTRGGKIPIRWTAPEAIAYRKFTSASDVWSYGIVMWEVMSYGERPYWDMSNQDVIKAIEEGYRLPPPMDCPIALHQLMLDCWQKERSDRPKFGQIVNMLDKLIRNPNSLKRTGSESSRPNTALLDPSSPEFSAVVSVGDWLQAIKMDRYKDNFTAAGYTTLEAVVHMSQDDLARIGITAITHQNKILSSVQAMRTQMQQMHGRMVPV

[9] = M. tuberculosis H37Rv growth inhibitors, H37Rv strain (AID 1626); format: functional
[10] = potency of ADAM10 substrate cleavage blockers – biochemical, QFRET, dose response (AID 743254);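 further: ADAM10 enzyme with the DM2 quenched FRET peptide as substrate; EDANS fluorescence gain as the protease cuts the substrate; inhibitor potency against ADAM10 proteolytic activity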
[11] = loss of viability in HepG2 cells – cell-based, CellTiter-Glo, cherry-picked, cytotoxicity control for Shn3 inhibitor project, dose response (AID 624134); format: functional
[12] = molecular target: T1, Disintegrin and metalloproteinase domain-containing protein 17; assay: inhibition of ADAM17 substrate cleavage – biochemical, quenched FRET substrate, counter-screen for ADAM10 exosite inhibitor project, dose response (AID 743253)
[13] = non-specific 3'UTR reporter inhibition in Clone20-Shn3RL – cell-based, Renilla luciferase, cherry-picked, counter-screen for Shn3 inhibitor project, dose response (AID 624133); format: functional
[14] = reduction of Shn3 3'UTR-driven luciferase in osteoblasts – cell-based, Clone20 osteoblasts, firefly luciferase, cherry-picked, dose response (AID 624132); format: functional;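 further: firefly luciferase luminescence from reporter carrying the Shn3 3'UTR in osteoblasts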
[15] = general cell-killing toxicity readout – plate reader, dry powder samples, cytotoxicity control for PAX8 inhibitor project, dose response (AID 743021); format: functional, cell-based
[16] = reduced cellular PGC1a acetyl-lysine signal – cell-based, cherry-picked samples, dose response (AID 720514); format: functional;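 further: potency may reflect raised or lowered acetylation signal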
[17] = viability loss in THP-1 monocytes – THP-1 cells, cytotoxicity control for Vif-APOBEC3G degradation inhibitor project, dose response (AID 1117359); format: functional; settings: THP-1
[18] = P. falciparum Dd2 growth inhibitors, dose response, SYBR Green, cherry-picked samples (AID 1159567); format: functional, cell-based
[19] = growth inhibition of PfATP4-mutant resistant parasites – NITD609-resistant line, SYBR Green, dry powder, dose response (AID 1159571); format: functional, cell-based;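 further: parasites synchronized at ring stage by sorbitol before testing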
[20] = toxicity to human HepG2 hepatoma cells – cell-based, plate reader, dry powder samples, cytotoxicity control, dose response (AID 1159569); format: functional;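 further: inhibitor potency with signal falling toward the positive control level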
[21] = growth inhibition of yeast DHODH-expressing 3D7 parasites – SYBR Green, dry powder samples, dose response (AID 1159570); format: functional, cell-based;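 further: parasite growth measured after 72 hours of compound exposure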
[22] = Dd2 malaria parasite growth inhibition potency – SYBR Green, dry powder samples, dose response (AID 1159566); format: functional, cell-based;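 further: potency for growth inhibition with lower SYBR green DNA signal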
[23] = toxicity to human hepatoma HepG2 cells – cell-based, cherry-picked samples, cytotoxicity control, dose response (AID 1159577); format: functional

Question: What does the source list for `Cn1c(=O)[nH]c(=O)c2c1nc(N1CCN(C(c3ccccc3)c3ccccc3)CC1)n2CCO`?
Answer: AC50 (INS1): 6.24 µM (active); CC50 (Vero): 14.5 µM (active)

Question: Which EC50 [1] does the source give for `COc1ccccc1-n1cc(-c2ccc(Cl)cc2)nc1O` here?
Answer: Its EC50 is > 112 µM (not active).

Question: What about the EC50 [2] of the same compound?
Answer: Its EC50 is < 0.3 µM (active).

Question: What about the EC50 [3] of the same compound?
Answer: Its EC50 is 1.89 µM (active).

Question: For `CCCn1c(SCC(=O)N2c3ccccc3Sc3ccccc32)nc2ccccc21`, which EC50 [4] is on record?
Answer: The EC50 was 2.9 µM (active).

Question: And the IC50 [5]?
Answer: The IC50 was 19.7 µM (inactive).

Question: And the EC50 [6]?
Answer: Its EC50 is > 60 µM (not active).

Question: And the IC50 [7]?
Answer: The IC50 was > 69.5 µM (inactive).

Question: What does the source list for `CCc1c(C)c(C#N)c2nc3ccccc3n2c1Cl`?
Answer: EC50 [8]: 9.98 µM (not active); EC50 (BJ): 0.443 µM (inconclusive)

Question: For `COc1cccc(C2(CSc3nnc(-c4cc(OC)c(OC)c(OC)c4)o3)OCCO2)c1`, which IC50 (Ephrin type-A receptor 4) is on record?
Answer: Its IC50 is > 100 µM (not active).

Question: For `CC(=O)Nc1ccc(NC(=O)c2ccc(C3SCC(=O)N3CCc3ccccc3)cc2)cc1` (configuration not stated), which IC50 [9] is on record?
Answer: The IC50 was > 100 µM (active).

Question: What does the source list for `C=CCC[C@H](Cc1ccc(F)cc1)C(=O)OC[C@H](Cc1c[nH]c2ccccc12)NC(=O)[C@@H](CC=C)CC(=O)N[C@H](CO)Cc1ccccc1`?
Answer: IC50 [10]: > 69.5 µM (inactive); IC50 [5]: 58.9 µM (inactive); AC50 [11]: 17 µM (active); IC50 [7]: > 69.5 µM (inactive); IC50 [12]: > 69.5 µM (inactive); AC50 [13]: 15.8 µM (active); AC50 [14]: 4.44 µM (active)

Question: For `Oc1nc2ccccc2n1C1CCN(C(c2ccccc2OC(F)(F)F)c2nnnn2-c2ccc3c(c2)OCCO3)CC1` (configuration not stated), which IC50 [10] is on record?
Answer: The IC50 was > 69.5 µM (inactive).

Question: And the AC50 [15]?
Answer: The AC50 was 37.1 µM (active).

Question: Which AC50 [16] does the source give for `C[C@H](CO)N1C[C@H](C)[C@@H](CN(C)Cc2cccnc2)Oc2cc(C#CC3CCCCC3)ccc2S1(=O)=O` here?
Answer: The AC50 was 6.45 µM (active).

Question: With `CCOC(=O)C1=C(C)N=c2s/c(=C/c3ccco3)c(=O)n2C1c1cccc(OC)c1` (configuration not stated) as the compound, how does the IC50 (Ephrin type-A receptor 4) read?
Answer: The IC50 was > 100 µM (not active).

Question: And the CC50 [17]?
Answer: Its CC50 is > 40 µM (active).

Question: For `COCc1cn([C@@H]2C[C@@H]3O[C@@H](CO)CC[C@@H]3O[C@@H]2CCc2ccc(-c3ccc(OC)cc3)cc2)nn1`, which AC50 [18] is on record?
Answer: Its AC50 is 1.12 µM (active).

Question: And the AC50 [19]?
Answer: The AC50 was 0.451 µM (active).

Question: And the AC50 [20]?
Answer: The AC50 was 43 µM (active).

Question: What about the AC50 [21] of the same compound?
Answer: Its AC50 is 0.231 µM (active).

Question: What about the AC50 [22] of the same compound?
Answer: The AC50 was 0.362 µM (active).

Question: For `C[C@H](CO)N1C[C@H](C)[C@@H](CN(C)C(=O)c2ccc(F)cc2)Oc2ncc(/C=C/c3ccccc3)cc2C1=O`, which AC50 [18] is on record?
Answer: The AC50 was 1.63 µM (active).

Question: What about the AC50 [19] of the same compound?
Answer: Its AC50 is 1.65 µM (active).

Question: What about the AC50 [20] of the same compound?
Answer: Its AC50 is 85.2 µM (active).

Question: And the AC50 [21]?
Answer: The AC50 was 2.68 µM (active).

Question: And the AC50 [22]?
Answer: The AC50 was 1.58 µM (active).

Question: Which results are given for `O=S(=O)(c1ccc(-c2ccccc2)cc1)N1C[C@@H]2N[C@H](C1)[C@@H]2c1ccc(-c2ccccc2)cc1`?
Answer: AC50 [18]: 2.86 µM (active); AC50 [23]: 16 µM (active)
